What was measured:
GP2D (KRAS G12D) = assay: Cell proliferation assay (CellTiter-Glo, 72 hours), GP2D; assay type: cell-based; settings: 384-well, CellTiter-Glo 2.0
Description: (§1) Two thousand KRAS mutant cells per well were seeded in 384-well white plate and then treated with indicated compounds for 72 hours at 37° C. and 5% CO2. Cell proliferation was measured using CellTiter-Glo 2.0 luciferase-based ATP detection assay (Promega, Madison, WI) following the manufacturer's protocol. IC50 values were determined using Prism software (GraphPad Software, San Diego, CA).

KRAS G12V = KRAS G12V (Homo sapiens, UniProt P01116, G12V); assay: biochemical
SW620 (KRAS G12V) = assay: Cell proliferation assay (CellTiter-Glo, 72 hours), SW620; assay type: cell-based; settings: 384-well, CellTiter-Glo 2.0
Description: as §1

AGS (G12D) = assay: Cell proliferation assay (CellTiter-Glo, 72 hours), AGS; assay type: cell-based; settings: 384-well, CellTiter-Glo 2.0
Description: as §1

KRAS G12D = KRAS G12D (Homo sapiens, UniProt P01116, G12D); assay: biochemical
KRAS G12D, sequence (P01116 1-188 isoform P01116-2 G12D): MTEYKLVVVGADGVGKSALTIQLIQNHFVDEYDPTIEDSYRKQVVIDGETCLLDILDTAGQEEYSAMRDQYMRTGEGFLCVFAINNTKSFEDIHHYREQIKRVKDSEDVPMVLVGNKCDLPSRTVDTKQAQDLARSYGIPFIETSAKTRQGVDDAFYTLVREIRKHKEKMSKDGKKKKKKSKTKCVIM

KRAS G12V, sequence (P01116 1-188 isoform P01116-2 G12V): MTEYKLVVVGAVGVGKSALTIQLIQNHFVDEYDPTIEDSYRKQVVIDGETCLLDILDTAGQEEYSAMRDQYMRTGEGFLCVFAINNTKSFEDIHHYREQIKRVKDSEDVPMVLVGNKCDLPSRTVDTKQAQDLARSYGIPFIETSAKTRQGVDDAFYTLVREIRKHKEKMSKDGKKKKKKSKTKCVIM

SMILES | IC50 (GP2D (KRAS G12D)) | IC50 (KRAS G12V) | IC50 (SW620 (KRAS G12V); Homo sapiens, SW-620, 72 h) | IC50 (AGS (G12D); 72 h) | IC50 (KRAS G12D) | IC50 (SW620 (KRAS G12V)) | IC50 (AGS (G12D)) | IC50 (GP2D (KRAS G12D); GP2d, 72 h)
Fc1c(-c2c(Cl)ccc3[nH]nc(Cl)c23)nc2c3c(nc(OC[C@@]45CCCN4C[C@H](F)C5)nc13)N1CCCC[C@H]1CO2 (atropisomer, axis not shown) [Example 83, (7S)-12-(3,5-dichloro-1H-indazol-4-yl)-13-fluoro-16-[[(2R,8S)-2-fluoro-1,2,3,5,6,6-4hexahydropyrrolizin-8-yl]methoxy]-9-oxa-2,11,15,17-tetrazatetracyclo[8.7.1.02,7.014,18]octadeca-1 (17),10 (18),11,13,15-pentaene] | 1080 nM | 59.3 nM | > 3000 nM | > 3000 nM | 60.4 nM |  |  | 
Fc1c(-c2c(Cl)ccc3[nH]nc(Cl)c23)nc2c3c(nc(OC[C@@]45CCCN4C[C@H](F)C5)nc13)N1CCCC[C@H]1CO2 (atropisomer, axis not shown) [Example 84, (7S)-12-(3,5-dichloro-1H-indazol-4-yl)-13-fluoro-16-[[(2R,8S)-2-fluoro-1,2,3,5,6,7-hexahydropyrrolizin-8-yl]methoxy]-9-oxa-2,11,15,17-tetrazatetracyclo[8.7.1.02, 7.014,18]octadeca-1 (17),10 (18),11,13,15-pentaene] | > 3000 nM | 48 nM |  |  | 54.5 nM | > 3000 nM | > 3000 nM | 
Nc1nc2c(-c3nc4c5c(nc(OC[C@@]67CCCN6C[C@H](F)C7)nc5c3F)N3CCCC[C@H]3CO4)ccc(F)c2s1 [Example 40, 7-fluoro-4-[(8aS)-4-fluoro-2-{[(2R,7aS)-2-fluorotetrahydro-1H-pyrrolizin-7a(5H)-yl]methoxy}-8,8a,9,10,11,12-hexahydro-7-oxa-1,3,6,12a-tetraazabenzo[4,5]cyclohepta[1,2,3-de]naphthalen-5-yl]-1,3-benzothiazol-2-amine] |  | 28.2 nM | > 3000 nM | > 3000 nM | 30.1 nM |  |  | > 3000 nM
Cc1cc(N)nc(-c2nc3c4c(nc(OC[C@@]56CCCN5C[C@H](F)C6)nc4c2F)N2CCCC[C@H]2CO3)c1C(F)(F)F [Example 43, 6-[(8aS)-4-fluoro-2-{[(2R,7aS)-2-fluorotetrahydro-1H-pyrrolizin-7a(5H)-yl]methoxy}-8,8a,9,10,11,12-hexahydro-7-oxa-1,3,6,12a-tetraazabenzo[4,5]cyclohepta[1,2,3-de]naphthalen-5-yl]-4-methyl-5-(trifluoromethyl)pyridin-2-amine] |  | 12.7 nM | > 3000 nM | > 3000 nM | 16.3 nM |  |  | 2120 nM
C#Cc1c(F)ccc2cc(O)cc(-c3cc4c5c(nc(OC[C@@]67CCCN6C[C@H](F)C7)nc5c3F)N3CCCC[C@H]3CO4)c12 [Example 45, 5-ethynyl-6-fluoro-4-[(8aS)-4-fluoro-2-{[(2R,7aS)-2-fluorotetrahydro-1H-pyrrolizin-7a(5H)-yl]methoxy}-8,8a,9,10,11,12-hexahydropyrido[2′,1′:3,4][1,4]oxazepino[5,6,7-de]quinazolin-5-yl]naphthalen-2-ol] |  | 2.33 nM | 321 nM | 621 nM | 3.28 nM |  |  | 361 nM
C#Cc1c(F)ccc2cc(O)cc(-c3nc4c5c(nc(OC[C@@]67CCCN6C[C@H](F)C7)nc5c3F)N[C@@H](C)CO4)c12 [Example 46, 5-ethynyl-6-fluoro-4-[(9S)-4-fluoro-2-{[(2R,7aS)-2-fluorotetrahydro-1H-pyrrolizin-7a(5H)-yl]methoxy}-9-methyl-9,10-dihydro-8H-7-oxa-1,3,6,10-tetraazacyclohepta[1,2,3-de]naphthalen-5-yl]naphthalen-2-ol] |  | 1.71 nM | 414 nM | 193 nM | 2.1 nM |  |  | 74.8 nM
C#Cc1c(F)ccc2cc(O)cc(-c3nc4c5c(nc(OC[C@@]67CCCN6C[C@H](F)C7)nc5c3F)N(C)[C@@H](C)CO4)c12 [Example 50, 5-ethynyl-6-fluoro-4-[(9S)-4-fluoro-2-{[(2R,7aS)-2-fluorotetrahydro-1H-pyrrolizin-7a(5H)-yl]methoxy}-9,10-dimethyl-9,10-dihydro-8H-7-oxa-1,3,6,10-tetraazacyclohepta[1,2,3-de]naphthalen-5-yl]naphthalen-2-ol] |  | 1.99 nM | 25.7 nM | 28.4 nM | 1.71 nM |  |  | 8.94 nM
C#Cc1c(F)ccc2cc(O)cc(-c3nc4c5c(nc(OC[C@@]67CCCN6C/C(=C\F)C7)nc5c3F)N3CCCC[C@H]3CO4)c12 [Example 52, 5-ethynyl-6-fluoro-4-[(8aS)-4-fluoro-2-{[(2Z,7aS)-2-(fluoromethylidene)tetrahydro-1H-pyrrolizin-7a(5H)-yl]methoxy}-8,8a,9,10,11,12-hexahydro-7-oxa-1,3,6,12a-tetraazabenzo[4,5]cyclohepta[1,2,3-de]naphthalen-5-yl]naphthalen-2-ol] |  | 2.22 nM | 9.2 nM | 7.7 nM | 2.26 nM |  |  | 1.75 nM
C#Cc1c(F)ccc2cc(O)cc(-c3nc4c5c(nc(OC[C@@]67CCCN6C[C@H](F)C7)nc5c3F)N3[C@@H](COC[C@@H]3C)CO4)c12 [Example 59, 5-ethynyl-6-fluoro-4-[(8aS,12S)-4-fluoro-2-{[(2R,7aS)-2-fluorotetrahydro-1H-pyrrolizin-7a(5H)-yl]methoxy}-12-methyl-8a,9,11,12-tetrahydro-8H-7,10-dioxa-1,3,6,12a-tetraazabenzo[4,5]cyclohepta[1,2,3-de]naphthalen-5-yl]naphthalen-2-ol] |  | 3.08 nM | 77.2 nM | 70.6 nM | 2.66 nM |  |  | 12.4 nM
C#Cc1c(F)ccc2cc(O)cc(-c3nc4c5c(nc(OC[C@@]67CCCN6C[C@H](F)C7)nc5c3F)N(Cc3ccccc3)[C@@H](C)CO4)c12 [Example 74, 4-[(9S)-10-benzyl-4-fluoro-2-{[(2R,7aS)-2-fluorotetrahydro-1H-pyrrolizin-7a(5H)-yl]methoxy}-9-methyl-9,10-dihydro-8H-7-oxa-1,3,6,10-tetraazacyclohepta[1,2,3-de]naphthalen-5-yl]-5-ethynyl-6-fluoronaphthalen-2-ol] |  | 2.81 nM | 348 nM | 1480 nM | 4 nM |  |  | 480 nM
CCc1c(F)ccc2cc(O)cc(-c3nc4c5c(nc(OC[C@@]67CCCN6C[C@H](F)C7)nc5c3F)N3CCCC[C@H]3C(C)O4)c12 (stereo partly drawn) [Example 75, 5-ethyl-6-fluoro-4-((5aS)-1-fluoro-11-(((2R,7aS)-2-fluorotetrahydro-1H-pyrrolizin-7a(5H)-yl)methoxy)-5-methyl-5,5a,6,7,8,9-hexahydro-4-oxa-3,9a, 10,12-tetraazabenzo[4,5]cyclohepta[1,2,3-de]naphthalen-2-yl)naphthalen-2-ol] |  | 1.6 nM | 702 nM | 1620 nM | 1.76 nM |  |  | 349 nM
Fc1c(-c2c(Cl)ccc3[nH]ncc23)nc2c3c(nc(OC[C@@]45CCCN4C[C@H](F)C5)nc13)N1CCCC[C@H]1CO2 [Example 78, (7S)-12-(5-chloro-1H-indazol-4-yl)-13-fluoro-16-[[(2R,8S)-2-fluoro-1,2,3,5,6,7-hexahydropyrrolizin-8-yl]methoxy]-9-oxa-2,11,15,17-tetrazatetracyclo [8.7.1.02,7.014,18]octadeca-1 (17),10 (18),11,13,15-pentaene] |  | 51.9 nM | > 3000 nM | > 3000 nM | 40.2 nM |  |  | > 3000 nM
C#Cc1c(F)ccc2cc(O)cc(-c3nc4c5c(nc(OCC67CCCN6C/C(=C/F)C7)nc5c3F)N3CCCC[C@H]3CO4)c12 (stereo partly drawn) [Example 79, 5-ethynyl-6-fluoro-4-[(8aS)-4-fluoro-2-{[(2E)-2-(fluoromethylidene)tetrahydro-1H-pyrrolizin-7a(5H)-yl]methoxy}-8,8a,9,10,11,12-hexahydro-7-oxa-1,3,6,12a-tetraazabenzo[4,5]cyclohepta[1,2,3-de]naphthalen-5-yl]naphthalen-2-ol] |  | 1.69 nM | 11.2 nM | 3.33 nM | 1.65 nM |  |  | 2.26 nM
C#Cc1c(F)ccc2cc(O)cc(-c3nc4c5c(nc(OC[C@@]67CCCN6C[C@H](F)C7)nc5c3F)NCCO4)c12 [Example 82, 5-ethynyl-6-fluoro-4-(4-fluoro-2-{[(2R,7aS)-2-fluorotetrahydro-1H-pyrrolizin-7a(5H)-yl]methoxy}-9,10-dihydro-8H-7-oxa-1,3,6,10-tetraazacyclohepta[1,2,3-de]naphthalen-5-yl)naphthalen-2-ol] |  | 2.79 nM | > 3000 nM | 1440 nM | 2.64 nM |  |  | 470 nM
N#Cc1c(N)sc2c(F)ccc(-c3nc4c5c(nc(OC[C@@]67CCCN6C[C@H](F)C7)nc5c3F)N3CCCC[C@H]3CO4)c12 [Example 85, 2-amino-7-fluoro-4-[(8aS)-4-fluoro-2-{[(2R,7aS)-2-fluorotetrahydro-1H-pyrrolizin-7a(5H)-yl]methoxy}-8,8a,9,10,11,12-hexahydro-7-oxa-1,3,6,12a-tetraazabenzo[4,5]cyclohepta[1,2,3-de]naphthalen-5-yl]-1-benzothiophene-3-carbonitrile] |  | 2.17 nM | 820 nM | 631 nM | 2.35 nM |  |  | 143 nM
